Measurements from patent US8263601B2, “Deuterium substituted xanthine derivatives” (CoNCERT Pharmaceuticals, Inc., priority 2009, dated 2012).
Read-outs that look alike come from different tables or passages of the source.

How the values were obtained:
[1] = Pharmacokinetic study of 435(S) and other representative compounds in chimps after oral dosing (Example 40); format: in vivo; settings: species named in label measured in plasma
Description: 435(S) and representative compounds 121(S), 137(S), 421(S) and 437(S) were separately dissolved in warm (65° C.) water at a concentration [[of 10 mg/mL]]. The same protocol described for Example 39 was then followed for each representative compound.

[2] = Pharmacokinetic study in rats of (S)-M1 and Compound 435(S) after intravenous dosing (Example 37); format: in vivo, male Sprague-Dawley rats; settings: intravenous bolus single 5 mg/kg dose of 1:1 combination of (S)-M1 and 435(S), species named in label measured in plasma
Description: (§1) (S)-M1 and Compound 435(S) (a deuterated form of (S)-M1) were separately dissolved in saline at a concentration of 10 mg/mL. A 1:1 mixture of the two compounds was then prepared containing a final concentration of 5 mg/mL of each compound, which was used for intravenous administration. For oral administration the mixture was further diluted in saline to a final concentration of 1 mg/mL for each compound.
(§2) Three male Sprague-Dawley rats were used in each of the oral and intravenous studies. Animals were fasted overnight prior to administration of compounds. Intravenous administration was achieved by bolus injection of a single 5 mg/kg dose of the 1:1 combination into the cannulated jugular vein of the rats. Cannulation was achieved the day prior to dosing on rats that had been placed under anesthesia using ketamine (IM 30 mg/kg). Oral administration was achieved by oral gavage of a single 5 mg/kg dose. Blood samples (250 μL) were collected from the dosed rats at various times post-dosing (2 min, 5 min, 10 min, 20 min, 30 min, 1 hr, 2 hr, 3 hr, 4 hr, 5 hr, 6 hr) by retro-orbital sampling of the rats temporarily anesthetized with isoflurane. Blood samples were placed in tubes containing K2-EDTA and stored on ice until centrifuged. Within 30 minutes of collection, plasma was isolated by centrifugation. A 100-μL aliquot was removed, mixed with 200 μL of acetonitrile and stored at −20° C. until further analysis by LC-MS/MS using an Applied Bio-systems API 4000 mass spectrometer.
(§3) Samples were analyzed for the presence of the administered compound, the corresponding ketone (pentoxifylline and Compound 409) and the corresponding M5 metabolite. Samples (10 μL) were injected into a Zorbax SB-C8 (Rapid Resolution) column (2.1×30 mm, 3.5 μm). The initial mobile phase condition was 100% A (10 mM ammonium acetate in water) and 0% B (methanol) with a flow rate at 0.5 mL/min. Mobile phase B was allowed to reach 55% in 3 minutes and from 55% to 90% in 1 minute before ramping back to 0% in another minute. The overall run time was 5 minutes. For pentoxifylline and its M1 and M5 metabolites, the precursor/product ion pairs were set at m/z 281/193 (M1), m/z 279/181 (pentoxifylline), and m/z 267/221 (M5).
(§4) For Compound 435(S) and Compound 409 more than one ion pair was set up for to detect species that arose from loss of deuterium. […] This loss of deuterium appears to occur both in vivo and ex vivo by an unknown mechanism. The addition of acetonitrile to serum samples was used to stop any additional ex vivo deuterium loss prior to analysis. Typically, no more than 2 deuterium atoms were replaced by hydrogen. For Compound 435(S), there is a deuterium at the methinyl position which was lost upon oxidation to the keto-compound 409. Reduction of 409 to an M1 metabolite introduced a proton at the methinyl position. When serum from animals dosed with 435(S) were analyzed to quantitate administered compound and metabolites, compound species were included with one and two less side chain deuteriums in the total amounts (referred to hereinafter as the “−1D” and the “−2D” species). Thus, for Compound 435(S) and Compound 409 separate ion pairs were set up to detect the compound and its corresponding −1D and −2D species. For Compound 435(S) three ion pairs were detected: m/z 291/197, 290/197, and […]. For Compound 409 ion pairs of m/z 288/186, 287/186 and 286/186 were monitored. Inclusion of −1D and −2D species in the measurements of Compound 409 and Compound 435(S) more accurately quantitates the total active species and is reasonable based on what is known about the metabolism and activities of pentoxifylline and its M-1 metabolites. Increased plasma exposure to Compound 409 or any M-1 metabolites of 409 would be desirable. This includes the −1D and −2D species.
(§5) [drawing 78] which has no deuterium on its acid side chain, only one ion pair was used at m/z 271/225. The internal standard for the analysis was indiplon.

[3] = Pharmacokinetic study in rats of (S)-M1 and Compound 435(S) after oral dosing (Example 37); format: in vivo, male Sprague-Dawley rats; settings: oral gavage single 5 mg/kg dose, 1:1 mixture of (S)-M1 and 435(S), species named in label measured in plasma, −1D and −2D species included
Description: as §1, §2, §3, §4, §5

[4] = Pharmacokinetic study of pentoxifylline and Compound 435(S) in chimps after oral dosing (Example 39); format: in vivo; settings: oral gavage 65 mg each of pentoxifylline and 435(S) in water, species named in label measured in plasma
Description: Pentoxifylline and Compound 435(S) were tested according to a protocol similar to the Oral Dosing protocol followed in Example 38, except that (a) the compounds were separately dissolved in water rather than saline; (b) the mixture of the two compounds was not sterile filtered; and (c) oral administration was achieved by oral gavage of a single 65 mg dose of each compound (13 mL total dosing solution).

[5] = Pharmacokinetic study of pentoxifylline and Compound 435(S) in chimps after oral dosing (Example 38); format: in vivo; settings: in vivo, po, 75 mg
Description: Pentoxifylline and Compound 435(S) were separately dissolved in warm (65° C.) saline at a concentration at 10 mg/mL. A 1:1 mixture of the two compounds was then prepared containing a final concentration of 5 mg/mL of each compound and the mixture was then sterile filtered through a 0.2-μm filter.
Two chimps (one male and one female) were used in each of the oral and intravenous studies. Animals were fasted overnight prior to administration of compounds. All animals were sedated with ketamine (approximately 10 mg/kg) and/or telazol (approximately 5 mg/kg) prior to dosing. Intravenous administration was achieved by IV infusion of 75 mg of each compound (15 mL total dosing solution) over 10 minutes. Oral administration was achieved by oral gavage of a single 75 mg dose of each compound (15 mL total dosing solution). Blood samples (6 mL) were collected from the dosed chimps at various times prior to and after dosing. For intravenous administrations blood samples were collected at 0 min (preinfusion), 5 min, 9.5 min (immediately before the end of the infusion), then 6, 15, 30 and 45 min, and 1, 2, 4, 6, 8, 10 and 12 hr after the infusion is stopped. For oral administrations, blood samples were collected at 0 min (predose), 15 and 30 min, and 1, 1.5, 2, 4, 6, 8, 10 and 12 hr postdose.
Blood samples were placed in tubes containing sodium heparin, mixed and stored on ice until centrifuged. Within 30 minutes of collection, plasma was isolated by centrifuging the blood samples and removing an aliquot (200 μL) of the resulting plasma. Each 200-μL aliquot of plasma was mixed with 400 μL acetonitrile and stored at −70° C. until further analysis by LC-MS/MS using an Applied Bio-systems API 4000 mass spectrometer.
The analysis of all samples by LC-MS/MS was performed as described above for the rat plasma samples in Example 37.

in vivo = experiment: in vivo; set-up: species or system male beagle dogs; settings: dog, po, 2.5 mg/kg
Description: Metabolism of the title compounds were studied following oral administration to male beagle dogs. Blood samples were removed from dosed dogs at various time points and plasma isolated therefrom. The plasma samples were used for the determination of plasma drug levels by LC-MS/MS (liquid chromatography with tandem mass spectrometry) for estimating pharmacokinetic parameters.
Compound 409 and pentoxifylline were dissolved separately in saline to a concentration of 4 mg/mL. A 1:1 (v/v) mixture of the two solutions was prepared to yield a solution having a final concentration of 2 mg/mL of both Compound 409 and pentoxifylline.
Two male beagle dogs were fasted overnight and then orally dosed via gavage with 2.5 mg/kg of Compound 409 and pentoxifylline using the mixture described above. Blood samples (1.5-2 mL) were collected via the femoral vein at 0 min (pre-dose), 15 min, 30 min, 45 min, 1 hr, 1.5 hr, 2 hr, 3 hr, 4 hr, 6 hr, 8 hr, 10 hr, 12 hr, 16 hr and 24 hr post-dose. Blood was stored on ice prior to centrifugation to obtain plasma samples. Centrifugation took place within 1 hour of blood collection to harvest plasma (maximum volume). The plasma was decanted immediately and frozen/stored at −70° C. until analysis.

[6] = female, plasma, po, 65 mg, Table 17 iii): female chimp, 435(S) and 421(S), read-out: AUC0-12 Female
[7] = male, plasma, po, 65 mg, Table 17 iii): male chimp, 435(S) and 421(S), read-out: AUC0-12 Male
[8] = female, plasma, po, 65 mg, Table 17 iv): female chimp, 435(S) and 437(S), read-out: AUC0-12 Female

Compound: [2H]C([2H])([2H])[C@H](O)C([2H])([2H])CCCn1c(=O)c2c(ncn2C)n(C)c1=O [Compound 121(S), S-1-(4,4,6,6,6-d5-5-Hydroxyhexyl)-3,7-dimethyl-1H-purine-2,6(3H,7H)-dione]
- AUC(0-t) ([1]; female, plasma, po, 65 mg, Table 17 i): female chimp, 435(S) and 121(S), read-out: AUC0-12 Female): 105 ng·h/mL
- AUC(0-t) ([1]; male, plasma, po, 65 mg, Table 17 i): male chimp, 435(S) and 121(S), read-out: AUC0-12 Male): 304 ng·h/mL

Compound: [2H]C([2H])([2H])[C@]([2H])(O)C([2H])([2H])CCCn1c(=O)c2c(ncn2C)n(C)c1=O [Compound 137(S), (S)-1-(4,4,5,6,6,6-d6-5-Hydroxyhexyl)-3,7-dimethyl-1H-purine-2,6(3H,7H)-dione]
- AUC(0-t) ([1]; female, plasma, po, 65 mg, Table 17 ii): female chimp, 435(S) and 137(S), read-out: AUC0-12 Female): 163 ng·h/mL
- AUC(0-t) ([1]; male, plasma, po, 65 mg, Table 17 ii): male chimp, 435(S) and 137(S), read-out: AUC0-12 Male): 63 ng·h/mL

Compound: [2H]c1nc2c(c(=O)n(CCCC([2H])([2H])[C@@H](O)C([2H])([2H])[2H])c(=O)n2C)n1C [Compound 421(S), (S)-1-(4,4,6,6,6-d5-5-hydroxyhexyl)-3,7-dimethyl-8-d-1H-purine-2,6(3H,7H)-dione]
- AUC(0-t) [1, 6]: 634 ng·h/mL
- AUC(0-t) [1, 7]: 743 ng·h/mL

Compound: [2H]c1nc2c(c(=O)n(CCCC([2H])([2H])[C@@]([2H])(O)C([2H])([2H])[2H])c(=O)n2C)n1C [Compound 437(S), (S)-8-d1-1-(4,4,5,6,6,6-d6-5-Hydroxyhexyl)-3,7-dimethyl-1H-purine-2,6(3H,7H)-dione]
- AUC(0-t) [1, 8]: 1180 ng·h/mL
- AUC(0-t) ([1]; male, plasma, po, 65 mg, Table 17 iv): male chimp, 435(S) and 437(S), read-out: AUC0-12 Male): 757 ng·h/mL

Compound: Cn1cnc2c1c(=O)n(CCCC(=O)O)c(=O)n2C [Compound M5, reference compound]
- AUC0-12 Female ([1]; Table 17 i): female chimp, 435(S) and 121(S)): 653 ng·h/mL
- AUC0-12 Male ([1]; Table 17 i): male chimp, 435(S) and 121(S)): 630 ng·h/mL
- AUC0-12 Female ([1]; Table 17 ii): female chimp, 435(S) and 137(S)): 635 ng·h/mL
- AUC0-12 Male ([1]; Table 17 ii): male chimp, 435(S) and 137(S)): 539 ng·h/mL
- AUC0-∞ [2]: 1795 ± 521 ng·h/mL
- AUC0-∞ [3]: 2985 ± 601 ng·h/mL
- AUC0-12 Female ([4]; female chimp): 811 ng·h/mL
- AUC0-12 Male ([4]; male chimp): 817 ng·h/mL
- AUC0-∞ Female [5]: 1868 ng·h/mL
- AUC0-∞ Male [5]: 1456 ng·h/mL

Compound: [2H]c1nc2c(c(=O)n(CCCC(=O)O)c(=O)n2C)n1C [Deuterated M5 (M5b)]
- AUC(0-t) [1, 6]: 350 ng·h/mL
- AUC(0-t) [1, 8]: 416 ng·h/mL
- AUC(0-t) [1, 7]: 447 ng·h/mL

Compound: pentoxifylline [reference compound]
- Ave. AUC (in vivo): 448 ng·h/mL
- Ave. Cmax (in vivo): 784 ng/mL
